Laboratory results as given in patent US7625889B2, “Substituted bis aryl and heteroaryl compounds as selective 5HT2A antagonists” (Aventis Pharmaceuticals Inc., priority 2005, dated 2009).
Where a name gives a salt, the structure may show the parent alone.

target: T1, human 5HT2A receptor (Homo sapiens, UniProt P28223); experiment: Receptor Binding Assay, 5HT2A ([3H]N-methyl spiperone); conditions: BHK cells expressing human 5HT2A receptor, 2.5 nM [3H]N-methyl spiperone, 37° C.
T1 construct: expressed in transfected cells
T1 sequence (P28223 whole entry): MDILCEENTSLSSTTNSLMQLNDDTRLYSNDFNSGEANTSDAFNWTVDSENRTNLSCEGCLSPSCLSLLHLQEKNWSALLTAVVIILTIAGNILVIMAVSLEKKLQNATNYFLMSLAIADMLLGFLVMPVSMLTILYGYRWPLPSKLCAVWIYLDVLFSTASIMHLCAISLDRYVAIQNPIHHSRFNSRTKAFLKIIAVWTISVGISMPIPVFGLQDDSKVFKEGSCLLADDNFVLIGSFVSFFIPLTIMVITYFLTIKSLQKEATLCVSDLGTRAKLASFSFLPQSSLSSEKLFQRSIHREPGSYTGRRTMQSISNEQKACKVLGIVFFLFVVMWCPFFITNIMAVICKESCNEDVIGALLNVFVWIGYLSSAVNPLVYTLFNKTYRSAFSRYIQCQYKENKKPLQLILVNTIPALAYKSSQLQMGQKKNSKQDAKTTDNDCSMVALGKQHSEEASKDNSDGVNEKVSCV
Experimental: Cell Culture: BHK cells stably expressing the human 5HT2A receptor were maintained in Dulbecco's Modified Eagle's Medium supplemented with […] Geneticin, 1% Sodium Pyruvate, 1% Pen-Strep and 10% Fetal Calf Serum, and treated with 5 mM sodium butyrate for 24 h to increase receptor expression before harvesting. Cells were harvested by mechanical scraping, washed with Phosphate Buffered Saline, and stored at −80° C. in 10% DMSO in 1 mg/mil aliquots until used. Protein determination was made according to Lowry.
Receptor Binding Assays: The 5HT2A and D2L assays were conducted at 37° C. in a Tris buffer containing salts (50 mM Tris Buffer, pH 7.7; 120 mM NaCl; 5 mM KCl; 2 mM CaCl2; 1 mM MgCl2). Cell membranes (previously prepared and frozen) were rapidly thawed. Membranes were diluted to an appropriate concentration (to produce 100 μg protein/assay point for 5HT2A, and 58 μg protein/assay point for D2L) in Tris buffer and homogenized. Assays were conducted on 96-well plates, using 2.5 and 1 nM [^3H]N-methyl spiperone as radioligand for 5HT2A and D2L assays, respectively. Plates were incubated at 37° C. in a shaking water bath for 30 and 60 min, for 5HT2A and D2L, respectively. Nonspecific binding was defined using 100 μM methylsergide and eticlopride, for 5HT2A and D2L, respectively.
Assays were terminated by rapid filtration through Millipore MAFB or MAFC (5HT2C) filter plates (presoaked in 50 mM Tris HCl, pH 7.7, with 0.1% Brij) using a Millipore Cell Harvester. The filter plates were then washed with ice-cold 50 mM Tris buffer, pH 7.7, and allowed to dry overnight. 50 μl of Microscint scintillation cocktail were added and the plates were counted in a Packard Topcount scintillation counter.
IC50 and Ki calculations were performed using nonlinear regression one-site competition analysis (GraphPad, Prism), with top and bottom limits held constant at 0% and 100% inhibition, respectively. The percent inhibition at each drug concentration was the average of duplicate determinations. Except where indicated, each determination was performed 2 to 5 times.

Going from `CN(C)CCN(Cc1ccccc1)Cc1cccc(-c2ccc3[nH]ccc3c2)c1` [Example 1, N-Benzyl-N-[3-(1H-indol-5-yl)-benzyl]-N′,N′-dimethyl-ethane-1,2-diamine] to `CN(C)CCN(Cc1ccccc1)Cc1cccc(-c2ccc3[nH]ncc3c2)c1` [Example 6], the Ki falls from 10.8 nM to 2.7 nM (4-fold). The second binds more tightly here.

Going from `CN(C)CCN(Cc1ccccc1)Cc1cccc(-c2ccc3[nH]c(=O)sc3c2)c1` [Example 2] to `CN(C)CCN(Cc1ccccc1)Cc1cccc(-c2ccc3[nH]c(=O)[nH]c3c2)c1` [Example 5], the Ki rises from 2.4 nM to 218 nM (91-fold). The first binds more tightly here.

Going from `CN(C)CCN(Cc1ccccc1)Cc1cccc(-c2ccc3[nH]c(=O)n(C)c(=O)c3c2)c1` [Example 4] to `CN(C)CCN(Cc1ccccc1)Cc1cccc(-c2ccc3[nH]cnc3c2)c1` [Example 18], the Ki rises from 33.5 nM to 74.8 nM (2.2-fold). The first binds more tightly here.

Going from `CN(C)CCN(Cc1ccccc1)Cc1cccc(-c2cnc3c(c2)OCC(=O)N3)c1` [Example 7] to `CN(C)CCCN(Cc1ccccc1)Cc1cccc(-c2ccc3[nH]cnc3c2)c1` [Example 19], the Ki falls from 210 nM to 76.5 nM (2.7-fold).

First: CN1CCN(Cc2cccc(-c3ccc4[nH]c(=O)oc4c3)c2)CC1 [Example 8]
Second: CN1CCN(Cc2cccc(-c3ccc4[nH]nnc4c3)c2)CC1 [Example 9]
The Ki of the first is 6.4-fold lower: 35.4 nM for the first, 227 nM for the second.

Compared with `CN1CCN(Cc2cc(-c3ccc4[nH]ccc4c3)ccc2F)C(c2cccnc2)C1` (centres unmarked) [Example 10], `CN1CCN(Cc2cc(-c3ccc4[nH]ccc4c3)ccc2F)C(c2ccccn2)C1` (centres unmarked) [Example 13] is 4.2-fold lower in Ki: 13.8 nM for the first, 3.3 nM for the second.

Compared with `CN1CCN(Cc2cc(-c3ccc4[nH]c(=O)oc4c3)co2)[C@H](c2ccc(F)cc2)C1` [Example 11], `CN1CCN(Cc2ccc(-c3ccc4[nH]c(=O)oc4c3)o2)[C@@H](c2ccc(F)cc2)C1` [Example 14] is 12-fold lower in Ki: 16.2 nM for the first, 1.4 nM for the second.

Going from `CN1CCN(Cc2cc(-c3ccc4[nH]ccc4c3)ccc2F)C(c2ccc(C(F)(F)F)cc2)C1` (centres unmarked) [Example 15] to `CN1CCN(Cc2cc(-c3ccc4[nH]ccc4n3)ccc2F)[C@@H](c2ccc(F)cc2)C1` [Example 52], the Ki falls from 13.8 nM to 3.1 nM (4.5-fold). The second binds more tightly here.

Compared with `CN(C)CCCN(Cc1ccccc1)Cc1cccc(-c2ccc3[nH]nnc3c2)c1` [Example 17, N-[3-(1H-Benzotriazol-5-yl)-benzyl]-N-benzyl-N′,N′-dimethyl-propane-1,3-diamine], `CN(C)CCCN(Cc1cccc(-c2ccc3[nH]c(=O)sc3c2)c1)C(=O)c1ccccc1` [Example 36] is 1.8-fold lower in Ki: 7.2 nM for the first, 4.1 nM for the second. The second binds more tightly here.

`CN(C)CCN(Cc1cccc(-c2ccc3[nH]c(=O)oc3c2)c1)C(=O)c1ccccc1` [Example 24] and `CN(C)CCN(Cc1cccc(-c2ccc3[nH]c(=O)oc3c2)c1)C(=O)c1ccc(Cl)cc1` [Example 30] are within 1.5-fold of each other in Ki: 0.56 nM for the first, 0.77 nM for the second.

Compared with `CCN1CCCC1CN(Cc1cc(-c2ccc3[nH]c(=O)oc3c2)ccc1F)C(=O)c1ccc(F)cc1` (centres unmarked) [Example 25], `CCN1CCC[C@@H]1CN(Cc1cc(-c2ccc3[nH]c(=O)oc3c2)ccc1F)C(=O)c1ccc(F)cc1` [Example 31] is 1.5-fold higher in Ki: 0.6 nM for the first, 0.92 nM for the second. The first binds more tightly here.

`CN1CCC(N(Cc2cccc(-c3ccc4[nH]ccc4c3)c2)C(=O)c2cccs2)CC1` [Example 28] and `CN1CCC(N(Cc2cc(-c3ccc4[nH]ccc4c3)ccc2F)C(=O)c2cccs2)CC1` [Example 29] are the same in Ki: 0.7 nM for the first, 0.7 nM for the second.

First: CN(C)CCN(Cc1cccc(-c2ccc3[nH]c(=O)sc3c2)c1)C(=O)c1ccccc1 [Example 32]
Second: CN(C)CCN(Cc1cccc(-c2ccc3[nH]c(=O)sc3c2)c1)C(=O)c1ccc(Cl)cc1 [Example 37]
The Ki of the first is 3.7-fold lower: 1.1 nM for the first, 4.1 nM for the second.

Going from `CN(C)CCN(Cc1cc(-c2ccc3[nH]ccc3c2)ccc1F)C(=O)c1cccs1` [Example 33] to `CN(C)CCN(Cc1ccc(F)cc1)Cc1cc(-c2ccc3[nH]ccc3c2)ccc1F` [Example 72], the Ki rises from 1.19 nM to 2.37 nM (2-fold).

Compared with `CN(C)CCN(Cc1cc(-c2ccc3[nH]cc(C#N)c3c2)ccc1F)C(=O)c1ccc(F)cc1` [Example 35], `CN(C)CCN(Cc1cc(-c2ccc3c(c2)CCN3)ccc1F)C(=O)c1ccc(F)cc1` [Example 60] is 2.5-fold lower in Ki: 2.8 nM for the first, 1.13 nM for the second. The second binds more tightly here.

Going from `O=C(c1ccc(F)cc1)N(Cc1cc(-c2ccc3[nH]ccc3c2)ccc1F)CC12CCN(CC1)CC2` [Example 38] to `O=C(c1ccc(F)cc1)N(CCN1CCCC1)Cc1cc(-c2ccc3[nH]ncc3c2)ccc1F` [Example 55], the Ki falls from 14.4 nM to 0.31 nM (46-fold). The second binds more tightly here.

`O=C(c1ccc(F)cc1)N(CCN1CCCC1)Cc1cncc(-c2ccc3[nH]ccc3c2)c1` [Example 39] and `CN(C)CCN(Cc1cncc(-c2ccc3[nH]ccc3c2)c1)C(=O)c1ccc(F)cc1` [Example 74, N-(2-Dimethylamino-ethyl)-4-fluoro-N-[5-(1H-indol-5-yl)-pyridin-3-ylmethyl]-benzamide trifluoroacetate] are within 1.5-fold of each other in Ki: 1.1 nM for the first, 1.05 nM for the second.

First: CN1CCC(N(Cc2ccc(F)c(-c3ccc4[nH]ccc4c3)c2)C(=O)c2ccc(F)cc2)CC1 [Example 40]
Second: CN1CCC(N(Cc2cc(-c3ccc4[nH]ccc4c3)co2)C(=O)c2ccc(F)cc2)CC1 [Example 76]
The Ki of the first is 8.2-fold lower: 0.58 nM for the first, 4.74 nM for the second.

Going from `O=c1[nH]c2ccc(-c3ccc(F)c(CN4CCNCC4c4cccs4)c3)cc2o1` (centres unmarked) [Example 43] to `Fc1ccc([C@H]2CNCCN2Cc2cc(-c3ccc4[nH]nnc4c3)ccc2F)cc1` [Example 45], the Ki rises from 0.6 nM to 0.99 nM (1.7-fold). The first binds more tightly here.

Going from `CN(C)CCN(Cc1ccc(F)cc1)Cc1cncc(-c2ccc3[nH]c(=O)oc3c2)c1` [Example 48] to `CN(C)CCN(Cc1ccc(F)cc1)Cc1cc(-c2ccc3[nH]c(=O)oc3c2)co1` [Example 50], the Ki rises from 0.6 nM to 2.5 nM (4.2-fold). The first binds more tightly here.

First: CN(C)CCN(Cc1ccc(F)cc1)Cc1cncc(-c2ccc3[nH]ncc3c2)c1 [Example 49]
Second: CN1CC[C@@H](N(Cc2cc(-c3ccc4[nH]ncc4c3)ccc2F)C(=O)c2ccc(F)cc2)C1 [Example 62]
The Ki of the first is 1.9-fold lower: 0.4 nM for the first, 0.75 nM for the second.

Going from `N#Cc1c[nH]c2ccc(-c3ccc(F)c(CN4CCNC[C@@H]4c4ccc(F)cc4)c3)cc12` [Example 51] to `CN1CCC(N(Cc2ccc(F)cc2)Cc2cc(-c3ccc4[nH]ccc4c3)ccc2F)CC1` [Example 70, (4-Fluoro-benzyl)-[2-fluoro-5-(1H-indol-5-yl)-benzyl]-(1-methyl-piperidin-4-yl)-amine], the Ki falls from 9.2 nM to 0.72 nM (13-fold).

Compared with `CCN1CCC[C@H]1CN(Cc1cc(-c2ccc3[nH]nnc3c2)ccc1F)C(=O)c1ccc(F)cc1` [Example 53, N-[5-(1H-Benzotriazol-5-yl)-2-fluoro-benzyl]-N-(1-ethyl-pyrrolidin-2S-ylmethyl)-4-fluoro-benzamide], `CN1CCC(N(Cc2cc(-c3ccc4[nH]nnc4c3)ccc2F)C(=O)c2ccc(F)cc2)CC1` [Example 69, N-[5-(1H-Benzotriazol-5-yl)-2-fluoro-benzyl]-N-(1-methyl-piperidin-4-yl)-4-fluoro-benzamide] is 1.6-fold lower in Ki: 2.13 nM for the first, 1.35 nM for the second.

Compared with `O=C(c1ccc(F)cc1)N(CCN1CCCC1)Cc1cccc(-c2ccc3[nH]nnc3c2)c1` [Example 54], `O=C(c1cccs1)N(CCN1CCCC1)Cc1cc(-c2ccc3[nH]nnc3c2)ccc1F` [Example 56] is 7.2-fold higher in Ki: 0.9 nM for the first, 6.51 nM for the second.

Going from `O=C(c1ccc(F)cc1F)N(CCN1CCCC1)Cc1cc(-c2ccc3[nH]nnc3c2)ccc1F` [Example 57] to `CC(C)N1CCC(N(Cc2cc(-c3ccc4[nH]nnc4c3)ccc2F)C(=O)c2ccc(F)cc2)CC1` [Example 67, N-[5-(1H-Benzotriazol-5-yl)-2-fluoro-benzyl]-4-fluoro-N-(1-isopropyl-piperidin-4-yl)-benzamide], the Ki rises from 0.71 nM to 2.16 nM (3-fold). The first binds more tightly here.

`CN1C2CCC1CC(N(Cc1cc(-c3ccc4[nH]ncc4c3)ccc1F)C(=O)c1ccc(F)cc1)C2` (centres unmarked) [Example 58] and `CN1[C@@H]2CC[C@H]1C[C@H](N(Cc1cc(-c3ccc4[nH]ncc4c3)ccc1F)C(=O)c1ccc(F)cc1)C2` [Example 65] are within 1.5-fold of each other in Ki: 1.23 nM for the first, 0.9 nM for the second.

First: CN1CCC(N(Cc2cc(-c3ccc4[nH]c(=O)oc4c3)ccc2F)C(=O)c2ccc(F)cc2)CC1 [Example 59]
Second: CN1CC[C@H](N(Cc2cc(-c3ccc4[nH]ncc4c3)ccc2F)C(=O)c2ccc(F)cc2)C1 [Example 63]
The Ki of the first is 1.5-fold higher: 0.89 nM for the first, 0.58 nM for the second. The second binds more tightly here.

`CN1CCCC(N(Cc2cc(-c3ccc4[nH]ncc4c3)ccc2F)C(=O)c2ccc(F)cc2)C1` (centres unmarked) [Example 61] and `O=C(c1ccc(F)cc1)N(Cc1cc(-c2ccc3[nH]nnc3c2)ccc1F)C1CCNCC1` [Example 66] are within 1.5-fold of each other in Ki: 0.7 nM for the first, 0.67 nM for the second.

First: CN1CCCC(N(Cc2cc(-c3ccc4[nH]ncc4c3)ccc2F)C(=O)c2ccc(F)cc2)C1 (centres unmarked) [Example 64]
Second: O=C(c1ccc(F)cc1)N(Cc1cc(-c2ccc3[nH]nnc3c2)ccc1F)C1CCN(C2CC2)CC1 [Example 68, N-[5-(1H-Benzotriazol-5-yl)-2-fluoro-benzyl]-N-(1-cyclopropyl-piperidin-4-yl)-4-fluoro-benzamide]
The Ki of the first is 5.2-fold lower: 0.6 nM for the first, 3.14 nM for the second.

With `O=C(c1ccc(F)cc1)N(CCN1CCCC1)Cc1ccc(-c2ccc3[nH]ccc3c2)s1` [Example 75] the Ki was 2.14 nM.
